Results: ChEMBL document CHEMBL5357020, “Reducing Self-Assembly by Increasing Net Charge: Effect on Biological Activity of Mastoparan C” (ACS Med Chem Lett, 2024)
Active and inactive are the calls of the source. The rule behind the calls is not given here.

Assays:
[1] = system: Listeria monocytogenes; assay: Antimicrobial activity against Listeria monocytogenes ATCC 15313 assessed as reduction in microbial growth after 24 hrs by broth microdilution method; format: functional
[2] = system: Staphylococcus aureus; assay: Antimicrobial activity against Staphylococcus aureus ATCC 25923 assessed as reduction in microbial growth after 24 hrs by broth microdilution method; format: functional
[3] = system: Pseudomonas aeruginosa; assay: Antimicrobial activity against Pseudomonas aeruginosa ATCC 27853 assessed as reduction in microbial growth after 24 hrs by broth microdilution method; format: functional
[4] = system: Salmonella enterica; assay: Antimicrobial activity against Salmonella enterica ATCC 13076 assessed as reduction in microbial growth after 24 hrs by broth microdilution method; format: functional
[5] = system: Bacillus cereus; assay: Antimicrobial activity against Bacillus cereus ATCC 11778 assessed as reduction in microbial growth after 24 hrs by broth microdilution method; format: functional
[6] = system: Escherichia coli; assay: Antimicrobial activity against Escherichia coli ATCC 25922 assessed as reduction in microbial growth after 24 hrs by broth microdilution method; format: functional
[7] = system: Candida albicans; assay: Antifungal activity against Candida albicans ATCC 10231 assessed as reduction in fungal growth after 24 hrs by broth microdilution method; format: functional
[8] = system: Enterococcus faecalis; assay: Antimicrobial activity against Enterococcus faecalis ATCC 29212 assessed as reduction in microbial growth after 24 hrs by broth microdilution method; format: functional
[9] = system: Erythrocyte; assay: Hemolytic activity in human RBC assessed as hemolysis at 32 uM incubated for 30 mins; format: toxicity, cell-based; details: 0.5 h
[10] = system: Erythrocyte; assay: Hemolytic activity in human RBC assessed as hemolysis at 2 to 128 uM incubated for 30 mins; format: toxicity, cell-based; details: 0.5 h, dose 2-128 µM
[11] = system: NCI-H441; assay: Anticancer activity against human NCI-H441 cells assessed as inhibition of cell growth incubated for 24 hrs by CCK-8 assay; format: functional, cell-based
[12] = system: A-427; assay: Anticancer activity against human A-427 cells assessed as inhibition of cell growth incubated for 24 hrs by CCK-8 assay; format: functional, cell-based; details: A-427, 24 h

Compound	MIC [1]	MIC [2]	MIC [3]	MIC [4]	MIC [5]	MIC [6]	MIC [7]	MIC [8]	Activity [9]	Activity [10]	Activity [11]	IC50 [12]
O=C(N[C@H](CO)[C@H](O)c1ccc([N+](=O)[O-])cc1)C(Cl)Cl [CHLORAMPHENICOL]	64 µM	32 µM	> 128 µM	8 µM	8 µM	8 µM	> 128 µM	64 µM				
NC[C@H]1O[C@H](O[C@H]2[C@H](O)[C@@H](O[C@H]3O[C@H](CO)[C@@H](O)[C@H](N)[C@H]3O)[C@H](N)C[C@@H]2N)[C@H](O)[C@@H](O)[C@@H]1O [KANAMYCIN]	32 µM	32 µM	> 128 µM	16 µM	64 µM	32 µM	> 128 µM	> 128 µM				
H-LNLKALLAVAKKIL-NH2	8 µM	32 µM	64 µM	32 µM	4 µM	8 µM	8 µM	4 µM	Toxic	Non-Toxic		
H-LNLKALLKVAKKIL-NH2	4 µM	32 µM	64 µM	64 µM	8 µM	8 µM	16 µM	4 µM	Toxic	Non-Toxic	Active	7 µM
H-LNLKKLLAVAKKIL-NH2	8 µM	64 µM	128 µM	64 µM	16 µM	8 µM	32 µM	8 µM		Non-Toxic	Active	5.1 µM
H-LNLKKLLKVAKKIL-NH2	4 µM	32 µM	64 µM	32 µM	16 µM	8 µM	16 µM	4 µM		Non-Toxic		
